Experimental data published in patent publication US20240376176A1 (priority 2021, published 2024).
Structures can show the parent of a compound that is named as a salt.

Experiments:
[1] = target: natural sodium channel proteins; conditions: cited from earlier work
[2] = tested on: sciatic nerves and adjacent tissues; conditions: rat, in vivo
sciatic nerve = conditions: rat, in vivo

NC1=N[C@H](O)[C@H]2[C@H]3O[C@]4(O)O[C@@H]([C@@H](O)[C@@]2(N1)[C@@H]4O)[C@]3(O)CO [Free TTX, tetrodotoxin]
Kd [1]: ~1.3 nM | Inflammation Score (range) Day 4 [2]: 0.5 | Inflammation Score (range) Day 14 [2]: 0 (0-1.0) | Myotoxicity Score (range) Day 4 [2]: 0 (0-1.0) | Myotoxicity Score (range) Day 14 [2]: 0 (0-1.0)

CCCCN1CCCCC1C(=O)Nc1c(C)cccc1C (stereo not drawn) [Free Bup, bupivacaine hydrochloride]
Duration of nerve block (sciatic nerve): 2.4 ± 0.3 h
